Experimental data taken from PubChem BioAssay (NCI).
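Following 48 hours of exposure in 96-well plates, responses at five concentrations were used to interpolate endpoints linearly. TGI: concentration producing complete growth inhibition.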 *1 amine or outer side, *2 acyl side, *3 side chain or, on linkers, in order; H or OH if unused. Where a SMILES comes first, the peptide text is derived from it. [ ]: non-standard residue; d: D form. The star is where a group is joined. ξ: configuration not given here. X53 = CC(C)C[C@H](N[*:1])C1=N[C@H](C(=O)[*:2])CS1; Ile(3ξ) = CCC(C)[C@H](N)C(=O)O; Allyl(1,1-Me2) = C=CC(C)(C)*

Experiments:
Assay in all cases: NCI-60 cell line screen, 48 h
[1] = system: MOLT-4 leukemia
[2] = system: NCI/ADR-RES ovarian
[3] = system: HS 578T breast
[4] = system: SW-620 colon
[5] = system: NCI-H23 lung
[6] = system: ACHN renal
[7] = system: A549 NSCLC
[8] = system: COLO 205 colon
[9] = system: SK-OV-3 ovarian
[10] = system: RPMI-8226 leukemia
[11] = system: HCC-2998 colon
[12] = system: SF-268 CNS
[13] = system: EKVX NSCLC
[14] = system: UO-31 renal
[15] = system: HL-60(TB) leukemia
[16] = system: OVCAR-5 ovarian
[17] = system: PC-3 prostate
[18] = system: UACC-62 melanoma
[19] = system: IGROV1 ovarian
[20] = system: SR leukemia
[21] = system: SK-MEL-5 melanoma
[22] = system: K-562 leukemia
[23] = system: MALME-3M melanoma
[24] = system: OVCAR-3 ovarian
[25] = system: SF-295 CNS
[26] = system: MDA-MB-231 breast
[27] = system: TK-10 renal
[28] = system: SNB-19 CNS
[29] = system: RXF 393 renal
[30] = system: SNB-75 CNS
[31] = system: HCT-116 colon
[32] = system: NCI-H460 lung
[33] = system: A498 renal
[34] = system: U251 CNS
[35] = system: CCRF-CEM leukemia
[36] = system: NCI-H522 lung
[37] = system: MDA-MB-435
[38] = system: OVCAR-8 ovarian
[39] = system: NCI-H226 lung
[40] = system: HOP-62 NSCLC
[41] = system: KM12 colon
[42] = system: MCF7 breast
[43] = system: HT29 colon
[44] = system: HOP-92 NSCLC
[45] = system: DU-145 prostate
[46] = system: SF-539 CNS
[47] = system: UACC-257 melanoma
[48] = system: CAKI-1 renal
[49] = system: SK-MEL-2 melanoma
[50] = system: 786-0 renal
[51] = system: MDA-N
[52] = system: SK-MEL-28 melanoma
[53] = system: HCT-15 colon
[54] = system: T-47D breast
[55] = system: SN12C renal
[56] = system: BT-549 breast
[57] = system: OVCAR-4 ovarian
[58] = system: M14 melanoma
[59] = system: LOX IMVI melanoma

Structure (SMILES): C1CSC2=C(S1)SC1=C(S2)SC(=C2SC3=C(SC4=C(SCCS4)S3)S2)S1
- TGI [1]: > 100 µM
- TGI [2]: > 100 µM
- TGI [3]: > 100 µM
- TGI [4]: > 100 µM
- TGI [5]: > 100 µM
- TGI [6]: > 100 µM
- TGI [7]: > 100 µM
- TGI [8]: > 100 µM
- TGI [9]: > 100 µM
- TGI [10]: > 100 µM
- TGI [11]: > 100 µM
- TGI [12]: > 100 µM
- TGI [13]: > 100 µM
- TGI [14]: > 100 µM
- TGI [15]: > 100 µM
- TGI [16]: > 100 µM
- TGI [17]: > 100 µM
- TGI [18]: > 100 µM
- TGI [19]: > 100 µM
- TGI [20]: > 100 µM
- TGI [21]: > 100 µM
- TGI [22]: > 100 µM
- TGI [23]: > 100 µM
- TGI [24]: > 100 µM
- TGI [25]: > 100 µM
- TGI [26]: > 100 µM
- TGI [27]: > 100 µM
- TGI [28]: > 100 µM
- TGI [29]: > 100 µM
- TGI [30]: > 100 µM
- TGI [31]: > 100 µM
- TGI [32]: > 100 µM
- TGI [33]: > 100 µM
- TGI [34]: > 100 µM
- TGI [35]: > 100 µM
- TGI [36]: > 100 µM
- TGI [37]: > 100 µM
- TGI [38]: > 100 µM
- TGI [39]: > 100 µM
- TGI [40]: > 100 µM
- TGI [41]: > 100 µM
- TGI [42]: > 100 µM
- TGI [43]: > 100 µM
- TGI [44]: > 100 µM
- TGI [45]: > 100 µM
- TGI [46]: > 100 µM
- TGI [47]: > 100 µM
- TGI [48]: > 100 µM
- TGI [49]: > 100 µM
- TGI [50]: > 100 µM
- TGI [51]: > 100 µM
- TGI [52]: > 100 µM
- TGI [53]: > 100 µM
- TGI [54]: > 100 µM
- TGI [55]: > 100 µM
- TGI [56]: > 100 µM
- TGI [57]: > 100 µM
- TGI [58]: > 100 µM

Structure (SMILES): Clc1ccc(Cc2nc3cc(Cl)c(Cl)cc3n2CC2CCCN3CCCCC23)cc1Cl (configuration not stated)
- TGI [1]: > 100 µM
- TGI [2]: 17.2 µM
- TGI [3]: 19.2 µM
- TGI [4]: 4.9 µM
- TGI [6]: 16.1 µM
- TGI [7]: 20 µM
- TGI [8]: 4.83 µM
- TGI [9]: 13.4 µM
- TGI [10]: > 100 µM
- TGI [11]: 3.45 µM
- TGI [12]: 15.8 µM
- TGI [13]: 11.1 µM
- TGI [14]: 1.25 µM
- TGI [15]: 5.93 µM
- TGI [16]: 12.3 µM
- TGI [17]: 14.1 µM
- TGI [18]: 5.42 µM
- TGI [19]: 15.4 µM
- TGI [20]: 7.6 µM
- TGI [21]: 4.38 µM
- TGI [22]: > 100 µM
- TGI [23]: 3.91 µM
- TGI [24]: 33.2 µM
- TGI [25]: 10.5 µM
- TGI [26]: 7.84 µM
- TGI [27]: 19.5 µM
- TGI [28]: 8.2 µM
- TGI [29]: 30.7 µM
- TGI [30]: 12 µM
- TGI [31]: 10.7 µM
- TGI [32]: 9.75 µM
- TGI [33]: 21 µM
- TGI [34]: 13.7 µM
- TGI [36]: 3.54 µM
- TGI [59]: 6 µM
- TGI [37]: 17.2 µM
- TGI [38]: 22.6 µM
- TGI [39]: 26.8 µM
- TGI [40]: 24.5 µM
- TGI [41]: 7.51 µM
- TGI [42]: 7.15 µM
- TGI [43]: 6.85 µM
- TGI [44]: 22.8 µM
- TGI [45]: 19.4 µM
- TGI [46]: 4.17 µM
- TGI [47]: 10.6 µM
- TGI [48]: 15.9 µM
- TGI [49]: 19.7 µM
- TGI [50]: 12.7 µM
- TGI [51]: 16.5 µM
- TGI [52]: 10.7 µM
- TGI [53]: 17.1 µM
- TGI [54]: 33.4 µM
- TGI [55]: 15.8 µM
- TGI [56]: 21.4 µM
- TGI [57]: 20.3 µM
- TGI [58]: 4.04 µM

Structure (SMILES): C=CC(C)(C)OC[C@@H]1NC(=O)CNC(=O)[C@@H]2CCCN2C(=O)[C@H](C(C)CC)NC(=O)[C@@H]2CSC(=N2)[C@H](CC(C)C)NC1=O (some centres not stated) (cyclo(GS(Allyl(1,1-Me2))[X53][Ile(3ξ)]P))
- TGI [1]: 76.1 µM
- TGI [2]: > 100 µM
- TGI [3]: > 100 µM
- TGI [5]: > 100 µM
- TGI [6]: > 100 µM
- TGI [7]: > 100 µM
- TGI [8]: > 100 µM
- TGI [9]: > 100 µM
- TGI [10]: 94.1 µM
- TGI [11]: > 100 µM
- TGI [12]: > 100 µM
- TGI [13]: > 100 µM
- TGI [14]: > 100 µM
- TGI [15]: 64.4 µM
- TGI [16]: > 100 µM
- TGI [17]: > 100 µM
- TGI [18]: > 100 µM
- TGI [19]: > 100 µM
- TGI [20]: > 100 µM
- TGI [21]: > 100 µM
- TGI [22]: > 100 µM
- TGI [23]: > 100 µM
- TGI [24]: > 100 µM
- TGI [25]: > 100 µM
- TGI [26]: > 100 µM
- TGI [27]: > 100 µM
- TGI [28]: > 100 µM
- TGI [29]: > 100 µM
- TGI [30]: > 100 µM
- TGI [31]: > 100 µM
- TGI [32]: > 100 µM
- TGI [33]: > 100 µM
- TGI [34]: > 100 µM
- TGI [35]: > 100 µM
- TGI [36]: > 100 µM
- TGI [59]: > 100 µM
- TGI [37]: > 100 µM
- TGI [38]: > 100 µM
- TGI [39]: > 100 µM
- TGI [40]: > 100 µM
- TGI [41]: > 100 µM
- TGI [42]: > 100 µM
- TGI [43]: > 100 µM
- TGI [44]: > 100 µM
- TGI [45]: > 100 µM
- TGI [46]: > 100 µM
- TGI [47]: > 100 µM
- TGI [48]: > 100 µM
- TGI [49]: > 100 µM
- TGI [50]: > 100 µM
- TGI [51]: > 100 µM
- TGI [53]: > 100 µM
- TGI [54]: > 100 µM
- TGI [55]: > 100 µM
- TGI [56]: > 100 µM
- TGI [57]: > 100 µM
- TGI [58]: > 100 µM
